This is an account of results in patent publication US9388149B2, “Disubstituted 3,4-diamino-3-cyclobutene-1,2-dione compounds for use in the treatment of chemokine-mediated diseases” (GALDERMA RESEARCH & DEVELOPMENT, priority 2011, dated 2016).

Data set [1] can be described thus: Metabolic stabilities in hepatocytes. It is filed as in vitro ADME. The note with it: compound 1 μM, sampling up to 24 hours; for half-life at 1 μM: human, hepatocytes, read-out: Half-life time. Here is the method: The human hepatocytes were supplied by Biopredic in 24-well plates.
The samples of incubation medium after addition of the test compound were taken at times t=0, 1, 2, 4, 6 and 24 hours.

The nature of data set [2]: Metabolic stabilities in hepatic microsomes. As to conditions: hepatic microsomes, pH 7.4, Half-life time (min), hepatic microsomes 0.5 mg/ml protein, compound 1 μM, sampling up to 60 minutes.
Protocol: Hepatic microsomes (Becton Dickinson) were incubated at a protein concentration of 0.5 mg/ml in the reaction medium.
The reaction medium of the microsomes was composed of phosphate buffer, pH: 7.4 at 100 mM, of MgCl2 at 100 mM (50/50), of an ATP-generating system composed of a mixture of nicotinamide adenine diphosphate (NADP), of glucose-6-phosphate (G6P) at 1 mg/ml and of glucose-6-phosphate dehydrogenase (G6PDH) at 4 U/ml. The compounds were tested at 1 μM (0.1% DMSO).
The samples of incubation medium after addition of the microsomes were taken at times 5, 10, 15, 30 and 60 minutes. At each time, the metabolic reaction was stopped by adding methanol (1 volume incubation medium/3 volumes of methanol). The disappearance of the parent product was measured by LC/MS/MS analysis. The time for which 50% of parent product disappeared (T1/2) was calculated from the kinetics of disappearance of the parent product as a function of time.
In a further data set the target is CXCR3 (Homo sapiens (Human), UniProt P49682). As to the kind of experiment: Calcium flux on Chem-1 cells expressing the chemokine receptor (FLIPR TETRA), antagonist mode. As to conditions: IC50 CXCR3, antagonist activity, reference agonist at AC80.
The next data set deals with CXCR2 receptor (Homo sapiens (Human), UniProt P25025). As to the kind of experiment: β-arrestin recruitment test, PathHunter HEK293-CXCR2 cells stimulated with CXCL8. Type of data set: cell-based. The note with it: inhibition of CXCL8 (10 nM) induced β-arrestin 2 recruitment; *9999 signifies not active. The method, then: (§1) The in vitro affinity of the compounds of the present invention for the CXCR1 and CXCR2 receptors was determined on a functional test of the β-arrestin recruitment after receptor activation type.
(§2) β-Arrestin recruitment test: “PathHunter HEK293-CXCR2” or “U2OS hCXCR1 β-arrestin” cells (DiscoveRx Corporation) were seeded overnight at 10 000 cells/well (384-well format) in 20 μl of Opti MEM I medium. A preincubation with the antagonist or the vehicle for 30 min at 37° C. and 5% CO2 was followed by 60 minutes of stimulation with CXCL8 at 37° C. and 5% CO2. The cells were then placed at ambient temperature for 30 minutes. The PathHunter detection reagent (DiscoveRx Corporation) was added. […] The data were analyzed by means of a non-linear curve procedure using the XLFit4 exploitation software (IDBS) and the IC50 values were determined.

Another data set deals with CCR6 (Homo sapiens (Human), UniProt P51684). As to the kind of experiment: Calcium flux on Chem-1 cells expressing the chemokine receptor (FLIPR TETRA), antagonist mode. Type of data set: cell-based. As to conditions: antagonist activity, reference agonist at AC80.
The target of a further data set is FPR1 (Homo sapiens (Human), UniProt P21462). As to the kind of experiment: Calcium flux on Chem-1 cells expressing the receptor (FLIPR TETRA), antagonist mode. The note with it: antagonist activity, reference agonist at AC80. Type of data set: cell-based.
A further data set addresses CCR8 (Homo sapiens (Human), UniProt P51685). As to the kind of experiment: Calcium flux on Chem-1 cells expressing the chemokine receptor (FLIPR TETRA), antagonist mode. It is filed as cell-based. The note with it: antagonist activity, reference agonist at AC80.
A further data set concerns the target CCR7 (Homo sapiens (Human), UniProt P32248). The data set is described as above. As to conditions: antagonist activity, reference agonist at AC80. Type of data set: cell-based.
A further data set concerns the target CCR4 (Homo sapiens (Human), UniProt P51679). The data set is described as above.
For a further data set, the target named is CXCR1 receptor (Homo sapiens (Human), UniProt P25024). As to the kind of experiment: β-arrestin recruitment test, U2OS hCXCR1 β-arrestin cells stimulated with CXCL8. Type of data set: cell-based. The note with it: inhibition of CXCL8 (10 nM) induced β-arrestin 2 recruitment; *9999 signifies not active. The method, then: as §1, §2
Data set [3] deals with receptors of CXCR1 and CXCR2 type. As to conditions: pseudo-irreversible dissociation, literature value; cited from earlier work.
For data set [4], the system named is panel of 20 chemokine receptors. Put plainly: Receptor profiling on a panel of 20 chemokine receptors (calcium flux). The note with it: result in words.
Protocol: (§3) Measurement of calcium flux on cells: The experiments were carried out on the FLIPR TETRA® platform from Molecular Devices.
(§4) Each cell line expressing a chemokine receptor was established on the basis of the Chem-1 cell stably expressing the recombinant form of the chemokine receptor and also an associated G protein, with the aim of coupling the receptor to the calcium signalling pathway.

CCR6, sequence (P51684 whole entry): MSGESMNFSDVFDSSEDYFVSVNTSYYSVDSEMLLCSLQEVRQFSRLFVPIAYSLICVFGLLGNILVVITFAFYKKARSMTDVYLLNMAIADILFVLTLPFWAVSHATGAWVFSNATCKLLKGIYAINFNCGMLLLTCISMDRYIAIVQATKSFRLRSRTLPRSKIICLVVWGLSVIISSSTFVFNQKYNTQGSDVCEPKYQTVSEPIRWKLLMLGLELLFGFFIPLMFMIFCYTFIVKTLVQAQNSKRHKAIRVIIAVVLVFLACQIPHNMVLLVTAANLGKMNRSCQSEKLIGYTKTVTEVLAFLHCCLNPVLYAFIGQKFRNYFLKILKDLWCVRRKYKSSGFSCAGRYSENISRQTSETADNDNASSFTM
CXCR2 receptor, sequence (P25025 whole entry): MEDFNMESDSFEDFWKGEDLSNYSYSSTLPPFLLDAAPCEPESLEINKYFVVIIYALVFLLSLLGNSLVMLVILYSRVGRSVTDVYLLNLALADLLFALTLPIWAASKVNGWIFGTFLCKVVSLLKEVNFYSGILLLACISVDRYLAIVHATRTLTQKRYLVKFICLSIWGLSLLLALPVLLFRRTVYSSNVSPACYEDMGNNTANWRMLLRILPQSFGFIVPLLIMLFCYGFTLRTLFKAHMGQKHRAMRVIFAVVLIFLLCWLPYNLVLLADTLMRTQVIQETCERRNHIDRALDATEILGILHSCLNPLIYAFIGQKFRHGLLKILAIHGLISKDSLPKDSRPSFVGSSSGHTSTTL
CXCR3, sequence (P49682 whole entry): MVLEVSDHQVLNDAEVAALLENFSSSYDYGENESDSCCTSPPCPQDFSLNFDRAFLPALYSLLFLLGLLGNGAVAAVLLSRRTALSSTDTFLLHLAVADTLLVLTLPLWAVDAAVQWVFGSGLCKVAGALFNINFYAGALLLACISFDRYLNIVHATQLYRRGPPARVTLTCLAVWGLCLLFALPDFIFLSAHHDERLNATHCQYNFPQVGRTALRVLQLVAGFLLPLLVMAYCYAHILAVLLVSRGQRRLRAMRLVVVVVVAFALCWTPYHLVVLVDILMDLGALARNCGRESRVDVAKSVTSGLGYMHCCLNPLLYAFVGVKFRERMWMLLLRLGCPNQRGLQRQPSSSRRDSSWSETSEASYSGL
CXCR1 receptor, sequence (P25024 whole entry): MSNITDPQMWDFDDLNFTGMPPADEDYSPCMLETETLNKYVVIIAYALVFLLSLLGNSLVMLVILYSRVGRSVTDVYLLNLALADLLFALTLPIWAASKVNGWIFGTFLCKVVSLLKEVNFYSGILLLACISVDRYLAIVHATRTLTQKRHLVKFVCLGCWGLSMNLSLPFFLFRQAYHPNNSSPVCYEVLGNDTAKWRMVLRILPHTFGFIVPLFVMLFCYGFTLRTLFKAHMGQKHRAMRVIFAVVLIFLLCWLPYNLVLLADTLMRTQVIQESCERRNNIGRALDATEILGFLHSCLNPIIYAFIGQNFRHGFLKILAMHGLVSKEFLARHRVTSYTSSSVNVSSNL
CCR4, sequence (P51679 whole entry): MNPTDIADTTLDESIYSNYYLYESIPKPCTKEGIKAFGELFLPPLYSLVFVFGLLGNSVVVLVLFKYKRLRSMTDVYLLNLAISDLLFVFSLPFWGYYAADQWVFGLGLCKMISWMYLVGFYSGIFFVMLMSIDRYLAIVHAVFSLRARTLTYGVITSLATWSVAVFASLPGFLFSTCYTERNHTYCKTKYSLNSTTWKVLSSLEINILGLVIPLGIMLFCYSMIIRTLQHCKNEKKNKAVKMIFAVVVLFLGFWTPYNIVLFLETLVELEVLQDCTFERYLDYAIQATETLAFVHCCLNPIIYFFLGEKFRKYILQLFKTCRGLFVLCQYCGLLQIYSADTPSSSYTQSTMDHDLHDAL
CCR8, sequence (P51685 whole entry): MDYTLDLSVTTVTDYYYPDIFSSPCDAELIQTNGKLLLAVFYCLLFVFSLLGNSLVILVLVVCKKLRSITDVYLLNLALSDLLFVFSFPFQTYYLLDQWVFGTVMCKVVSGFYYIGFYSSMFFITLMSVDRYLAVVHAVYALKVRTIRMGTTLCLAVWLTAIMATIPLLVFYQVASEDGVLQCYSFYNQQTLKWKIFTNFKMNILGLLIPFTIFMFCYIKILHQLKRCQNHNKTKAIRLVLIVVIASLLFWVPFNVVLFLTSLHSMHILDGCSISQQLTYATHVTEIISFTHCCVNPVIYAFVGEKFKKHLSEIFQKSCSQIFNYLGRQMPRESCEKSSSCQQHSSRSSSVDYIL
FPR1, sequence (P21462 whole entry): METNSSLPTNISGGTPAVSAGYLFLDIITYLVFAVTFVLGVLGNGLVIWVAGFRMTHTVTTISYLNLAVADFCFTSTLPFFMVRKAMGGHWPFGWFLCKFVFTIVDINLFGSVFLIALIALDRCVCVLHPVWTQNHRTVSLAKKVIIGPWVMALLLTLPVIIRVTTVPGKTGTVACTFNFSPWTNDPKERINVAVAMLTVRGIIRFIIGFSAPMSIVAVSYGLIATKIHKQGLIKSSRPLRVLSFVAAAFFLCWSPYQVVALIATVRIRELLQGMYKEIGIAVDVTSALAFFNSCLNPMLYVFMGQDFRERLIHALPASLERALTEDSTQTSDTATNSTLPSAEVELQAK
CCR7, sequence (P32248 25-378): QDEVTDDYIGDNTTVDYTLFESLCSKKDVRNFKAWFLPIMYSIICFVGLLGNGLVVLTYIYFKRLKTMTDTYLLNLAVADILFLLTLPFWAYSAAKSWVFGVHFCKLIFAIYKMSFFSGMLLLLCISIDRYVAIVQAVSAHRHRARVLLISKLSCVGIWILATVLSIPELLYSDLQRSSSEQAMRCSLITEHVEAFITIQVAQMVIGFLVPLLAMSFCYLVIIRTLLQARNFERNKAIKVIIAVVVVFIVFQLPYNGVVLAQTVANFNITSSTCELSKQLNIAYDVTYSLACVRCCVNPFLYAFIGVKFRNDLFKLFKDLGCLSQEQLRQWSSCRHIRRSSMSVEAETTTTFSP
Protocol for CCR4: as §3, §4
(§5) 21 receptors belonging to the chemokine receptor family (CCRs and CXCRs) were analyzed.
Protocol for CCR6: as §3, §4, §5
Protocol for CCR7: as §3, §4, §5
Protocol for CCR8: as §3, §4, §5
Protocol for CXCR3: as §3, §4, §5
Protocol for FPR1: as §3, §4

`Cc1ccc(C(Nc2c(Nc3cccc(C(=O)N(C)C)c3O)c(=O)c2=O)C2(C)CCCO2)o1` (single isomer, unassigned) [1 (diastereoisomer 2), 2-hydroxy-N,N-dimethyl-3-(2-{[(5-methylfuran-2-yl)-(2-methyltetrahydrofuran-2-yl)methyl]amino}-3,4-dioxo-cyclobut-1-enylamino)benzamide]: the “Half-life time” value in data set [1] (human hepatocytes) was determined as 539 min. In addition, the half-life at 1 μM in data set [2] stood at 27 min. Besides, the IC50 came to 55 nM at CXCR3, 94 nM against CXCR2 receptor and 2.2 nM on CCR6.
Take `Cc1ccc(C(Nc2c(Nc3cccc(C(=O)N(C)C)c3O)c(=O)c2=O)C2CCCS2)o1` (single isomer, unassigned) [2 (diastereoisomer 2), 2-Hydroxy-N,N-dimethyl-3-(2-{[(5-methylfuran-2-yl)-(tetrahydrothiophen-2-yl)methyl]amino}-3,4-dioxo-cyclobut-1-enylamino)benzamide]: the IC50 at FPR1 is 6500 nM; at CXCR2 receptor it was 35 nM; on CCR8, 620 nM. In addition, the half-life at 1 μM in data set [2] came out at 11 min.
Turning to `Cc1ccc(C(Nc2c(Nc3cccc(C(=O)N(C)C)c3O)c(=O)c2=O)C2(C)CCCO2)o1` (single isomer, unassigned) [Example 1 (Enantiomer 2 of diastereoisomer 2), 2-Hydroxy-N,N-dimethyl-3-(2-{[(5-methylfuran-2-yl)-(2-methyltetrahydrofuran-2-yl)methyl]amino}-3,4-dioxo-cyclobut-1-enylamino)benzamide], in data set [1], the half-life at 1 μM amounted to 300 min. In addition, the half-inhibitory concentration (IC50) at CCR7 came out at 8700 nM; at CCR4, 410 nM; at CXCR3 it was 1.3 nM; against CXCR2 receptor, 53 nM; on CCR6, 2 nM.
For `COC(=O)CN(C)C(=O)c1cccc(Nc2c(N[C@@H](c3ccc(C)o3)C3CCCS3)c(=O)c2=O)c1O` (single isomer, unassigned) [Example 19], the half-life at 1 μM in [1] amounted to 214 min; in data set [2] it was 8 min. Besides, the IC50 is 8.1 nM on CCR4; 510 nM on CXCR3; 20 nM against CXCR2 receptor; 11 nM on CCR6; 42 nM against CXCR1 receptor.
On to `Cc1ccc([C@H](Nc2c(Nc3cccc(C(=O)N(C)CC(F)(F)F)c3O)c(=O)c2=O)C2CCCS2)o1` (single isomer, unassigned; (-)) [Example 18], for which the half-life at 1 μM in [1] came out at 82 min; in data set [2], 15 min. Moreover, the IC50 at CCR4 was 97 nM; at CXCR3 it was 450 nM; against CXCR2 receptor it was 15 nM; against CXCR1 receptor, 36 nM.
As for `Cc1ccc(C(Nc2c(Nc3ccc(Cl)c(S(=O)(=O)N4CCN(C)CC4)c3O)c(=O)c2=O)C2CCCS2)o1` (single isomer, unassigned; (-)) [Example 22, (−)-3-[4-chloro-2-hydroxy-3-(4-methylpiperazine-1-sulfonyl)phenylamino]-4-{[(5-methylfuran-2-yl)-(tetrahydrothiophen-2-yl)methyl]amino}cyclobut-3-ene-1,2-dione], the half-life at 1 μM in data set [1] is 49 min; in data set [2], 7 min. The IC50 on CCR4 stood at 9.4 nM; at CXCR3, 150 nM; against CXCR2 receptor, 17 nM; against CXCR1 receptor it was 30 nM.
On to `CC[C@@H](Nc1c(Nc2cccc(C(=O)N(C)C)c2O)c(=O)c1=O)c1ccc(C)o1` [SCH-527123], for which, in [3], the dissociation time result is “about 22 h”. Moreover, the “activity on the chemokine receptors of the panel (CCR4, CCR6, CCR7, CCR8, CXCR3, FPR1)” value in data set [4] is “inactive or not very active at all”.
